From patent US20250320184A1 (SIRONAX LTD., priority 2022, published 2025) come the findings set out here.

pIC50: −log10 of the molar value.

By pIC50 is commonly meant −log10 of the IC50, conventionally taken in molar units. A lower pIC50 goes with a large IC50.

The experiment has as its target T1, SARM1 (50-724) (Homo sapiens, UniProt Q6SZW1).
T1 sequence (Q6SZW1 50-724): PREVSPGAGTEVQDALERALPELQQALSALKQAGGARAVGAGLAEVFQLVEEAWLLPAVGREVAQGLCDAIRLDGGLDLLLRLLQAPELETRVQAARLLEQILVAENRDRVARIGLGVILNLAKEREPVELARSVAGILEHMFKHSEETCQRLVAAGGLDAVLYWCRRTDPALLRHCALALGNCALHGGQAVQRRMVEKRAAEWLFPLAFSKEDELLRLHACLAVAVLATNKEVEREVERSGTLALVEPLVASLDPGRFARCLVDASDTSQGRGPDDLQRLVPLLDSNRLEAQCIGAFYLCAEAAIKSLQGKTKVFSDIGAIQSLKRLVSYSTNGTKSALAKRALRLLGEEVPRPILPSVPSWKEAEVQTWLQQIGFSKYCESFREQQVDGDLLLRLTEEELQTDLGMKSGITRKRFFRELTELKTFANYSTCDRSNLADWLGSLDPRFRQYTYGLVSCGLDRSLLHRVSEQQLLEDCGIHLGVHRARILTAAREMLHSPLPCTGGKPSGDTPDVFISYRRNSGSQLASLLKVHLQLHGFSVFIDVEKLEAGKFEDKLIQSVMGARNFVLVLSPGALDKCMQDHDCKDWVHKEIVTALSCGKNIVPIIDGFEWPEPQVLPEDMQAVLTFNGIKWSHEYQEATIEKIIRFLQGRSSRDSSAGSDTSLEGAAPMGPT
Nature of the experiment: biochemical.
Protocol: An enzymatic assay was performed in a 384-well plate using Dulbecco's phosphate-buffered saline (PBS) as the reaction buffer. […] The reaction was initiated by adding a mixture of 200 μM nicotinamide mononucleotide (NMN) as activator and 100 μM NAD^+ as substrate. After 1 h of incubation at room temperature, the reaction was terminated with 10 times volume of 70% acetonitrile, then centrifuged at 3800 rpm for 10 min.
In the case of `Cc1c2ccc(NC(C)c3nc(Cl)c(Cl)s3)cc2nn1[C@@H]1CC[C@@H](O)C1` (stereo in doubt) [Compound 335, 3-(6-((1-(4,5-dichlorothiazol-2-yl)ethyl)amino)-3-methyl-2H-indazol-2-yl)cyclopentan-1-ol], the pIC50 was greater than 7.00.

Compound `Cc1c2ccc(NC(C)c3nc(Cl)c(Cl)s3)cc2nn1[C@@H]1CC[C@H](O)C1` (stereo in doubt) [Compound 336, 3-(6-((1-(4,5-dichlorothiazol-2-yl)ethyl)amino)-3-methyl-2H-indazol-2-yl)cyclopentan-1-ol] gave a negative-log IC50 (pIC50) greater than 7.00.

Take `Cc1ccc(Cl)c(S(=O)(=O)Nc2ccc3c(c2)C(=O)NCC3)c1Cl` [Compound 2, 2,6-dichloro-3-methyl-N-(1-oxo-3,4-dihydro-2H-isoquinolin-7-yl)benzenesulfonamide]: the pIC50 is greater than 7.00.

In the case of `Cc1c(F)cccc1S(=O)(=O)Nc1ccc2c(c1)NC(=O)CC2` [Compound 3, 3-fluoro-2-methyl-N-(2-oxo-1,2,3,4-tetrahydroquinolin-7-yl)benzenesulfonamide], the pIC50 is 6.30 to 7.00.

As for `Cc1c(F)cccc1S(=O)(=O)Nc1ccc2c(c1)CN(C(=O)OC(C)(C)C)CC2` [Compound 4], the pIC50 was less than 6.00.

As to `Cc1c(F)cccc1S(=O)(=O)Nc1ccc2c(c1)C(=O)OCC2` [Compound 5, 3-fluoro-2-methyl-N-(1-oxoisochroman-7-yl)benzenesulfonamide], the pIC50 was less than 6.00.

As to `Cc1c(F)cccc1S(=O)(=O)Nc1ccc2c(c1)C(=O)NCCC2` [Compound 6, 3-fluoro-2-methyl-N-(1-oxo-2,3,4,5-tetrahydro-1H-benzo[c]azepin-8-yl)benzenesulfonamide], the negative-log IC50 (pIC50) is 6.30 to 7.00.

Consider `Cc1c(F)cccc1S(=O)(=O)Nc1ccc2c(c1)CC(=O)NC2` [Compound 7, 3-fluoro-2-methyl-N-(3-oxo-1,2,3,4-tetrahydroisoquinolin-6-yl)benzenesulfonamide], for which the pIC50 is less than 6.00.

On to `Cc1c(F)cccc1S(=O)(=O)Nc1ccc2c(c1)CCC(=O)N2` [Compound 8, 3-fluoro-2-methyl-N-(2-oxo-1,2,3,4-tetrahydroquinolin-6-yl)benzenesulfonamide], for which the negative-log IC50 (pIC50) is less than 6.00.

`Cc1ccccc1S(=O)(=O)Nc1ccc2c(c1)C(=O)NCC2` [Compound 9, 2-methyl-N-(1-oxo-1,2,3,4-tetrahydroisoquinolin-7-yl)benzenesulfonamide]: the pIC50 was less than 6.00.

For the compound `Cc1ccc(F)cc1S(=O)(=O)Nc1ccc2c(c1)C(=O)NCC2` [Compound 10, 5-fluoro-2-methyl-N-(1-oxo-1,2,3,4-tetrahydroisoquinolin-7-yl)benzenesulfonamide], the pIC50 is less than 6.00.

`O=S(=O)(Nc1ccc2cc[nH]c2c1)c1cccc(Cl)c1Cl` [Compound 11, 2,3-dichloro-N-(1H-indol-6-yl)benzenesulfonamide] showed a negative-log IC50 (pIC50) greater than 7.00.

In turn, `O=C1NCCc2ccc(NS(=O)(=O)c3cc(F)cc(Br)c3)cc21` [Compound 12, 3-bromo-5-fluoro-N-(1-oxo-1,2,3,4-tetrahydroisoquinolin-7-yl)benzenesulfonamide] had a pIC50 of less than 6.00.

`Cc1c(Br)cccc1S(=O)(=O)Nc1ccc2c(c1)C(=O)NCC2` [Compound 13, 3-bromo-2-methyl-N-(1-oxo-1,2,3,4-tetrahydroisoquinolin-7-yl)benzenesulfonamide]: the pIC50 was greater than 7.00.

`Cc1c(F)cccc1S(=O)(=O)Nc1ccc2c(c1)CCCC2` [Compound 14, 3-fluoro-2-methyl-N-(5,6,7,8-tetrahydronaphthalen-2-yl)benzenesulfonamide] gave a pIC50 of 6.00 to 6.30.

For `Cc1c(F)cccc1S(=O)(=O)Nc1ccc2cc[nH]c(=O)c2c1` [Compound 15, 3-fluoro-2-methyl-N-(1-oxo-1,2-dihydroisoquinolin-7-yl)benzenesulfonamide], the pIC50 was greater than 7.00.

Compound `Cc1ccnc2cc(NS(=O)(=O)c3cccc(Cl)c3Cl)ccc12` [Compound 16, 2,3-dichloro-N-(4-methylquinolin-7-yl)benzenesulfonamide] gave a negative-log IC50 (pIC50) of 6.30 to 7.00.

`Cc1cccc(C)c1S(=O)(=O)Nc1ccc2c(c1)C(=O)NCC2` [Compound 18, 2,6-dimethyl-N-(1-oxo-1,2,3,4-tetrahydroisoquinolin-7-yl)benzenesulfonamide]: the negative-log IC50 (pIC50) is 6.00 to 6.30.

`CC1Cc2ccc(NS(=O)(=O)c3cccc(Cl)c3Cl)cc2C(=O)N1` (stereo not drawn) [Compound 19, 2,3-dichloro-N-(3-methyl-1-oxo-1,2,3,4-tetrahydroisoquinolin-7-yl)benzenesulfonamide] gave a pIC50 of 6.30 to 7.00.

As for `O=C1NCCc2ccc(NS(=O)(=O)c3cccc(Cl)c3Cl)cc21` [Compound 20, 2,3-dichloro-N-(1-oxo-1,2,3,4-tetrahydroisoquinolin-7-yl)benzenesulfonamide], the negative logarithm of the IC50 (pIC50) is greater than 7.00.

The compound `Cc1c(F)cccc1S(=O)(=O)Nc1ccc2c(c1)C(=O)N(C)CC2` [Compound 21, 3-fluoro-2-methyl-N-(2-methyl-1-oxo-1,2,3,4-tetrahydroisoquinolin-7-yl)benzenesulfonamide] showed a pIC50 of 6.30 to 7.00.

`O=c1[nH]ccc2ccc(NS(=O)(=O)c3cccc(Cl)c3Cl)cc12` [Compound 22, 2,3-dichloro-N-(1-oxo-1,2-dihydroisoquinolin-7-yl)benzenesulfonamide] gave a pIC50 greater than 7.00.

`O=c1[nH]cnc2ccc(NS(=O)(=O)c3cccc(Cl)c3Cl)cc12` [Compound 23, 2,3-dichloro-N-(4-oxo-3,4-dihydroquinazolin-6-yl)benzenesulfonamide] had a pIC50 of 6.30 to 7.00.

`Cc1c(F)cccc1S(=O)(=O)Nc1ccc2cnn(C(=O)OC(C)(C)C)c2c1` [Compound 24, tert-butyl 6-((3-fluoro-2-methylphenyl)sulfonamido)-1H-indazole-1-carboxylate] gave a negative-log IC50 (pIC50) of less than 6.00.

On to `Cc1c(F)cccc1S(=O)(=O)Nc1ccc2cn[nH]c2c1` [Compound 25, 3-fluoro-N-(1H-indazol-6-yl)-2-methylbenzenesulfonamide], for which the negative logarithm of the IC50 (pIC50) was 6.00 to 6.30.

Consider `Cc1cnc2cc(NS(=O)(=O)c3cccc(Cl)c3Cl)ccc2c1` [Compound 26, 2,3-dichloro-N-(3-methylquinolin-7-yl)benzenesulfonamide], for which the negative-log IC50 (pIC50) was greater than 7.00.

In turn, `Cc1c(F)cccc1S(=O)(=O)Nc1cccc(N2CCCC2=O)c1` [Compound 27, 3-fluoro-2-methyl-N-(3-(2-oxopyrrolidin-1-yl)phenyl)benzenesulfonamide] gave a pIC50 of less than 6.00.

For the compound `Cc1c(F)cccc1S(=O)(=O)Nc1cccc(N2CCN(C)C2=O)c1` [Compound 28, 3-fluoro-2-methyl-N-(3-(3-methyl-2-oxoimidazolidin-1-yl)phenyl)benzenesulfonamide], the pIC50 is less than 6.00.

`Cc1nc2cc(NS(=O)(=O)c3cccc(Cl)c3Cl)ccc2s1` [Compound 29, 2,3-dichloro-N-(2-methylbenzo[d]thiazol-5-yl)benzenesulfonamide] had a negative logarithm of the IC50 (pIC50) of 6.30 to 7.00.

Regarding `Cc1cc(S(=O)(=O)Nc2ccc3c(c2)C(=O)NCC3)c(F)cc1F` [Compound 30, 2,4-difluoro-5-methyl-N-(1-oxo-1,2,3,4-tetrahydroisoquinolin-7-yl)benzenesulfonamide], the pIC50 was 6.30 to 7.00.

`NC(=O)Cc1ccc(NS(=O)(=O)c2cccc(Cl)c2Cl)cc1` [Compound 31, 2-(4-((2,3-dichlorophenyl)sulfonamido)phenyl)acetamide]: the pIC50 was 6.30 to 7.00.

`Cc1c(F)cccc1S(=O)(=O)Nc1ccc2scnc2c1` [Compound 32, N-(benzo[d]thiazol-5-yl)-3-fluoro-2-methylbenzenesulfonamide]: the negative-log IC50 (pIC50) is 6.30 to 7.00.

The compound `O=S(=O)(Nc1ccc2sc(Cl)nc2c1)c1cccc(Cl)c1Cl` [Compound 33, 2,3-dichloro-N-(2-chlorobenzo[d]thiazol-5-yl)benzenesulfonamide] gave a pIC50 of 6.30 to 7.00.

Compound `O=C1NCCc2ccc(NS(=O)(=O)c3cc(F)c(F)c(F)c3)cc21` [Compound 34, 3,4,5-trifluoro-N-(1-oxo-1,2,3,4-tetrahydroisoquinolin-7-yl)benzenesulfonamide] gave a negative logarithm of the IC50 (pIC50) of less than 6.00.

As to `O=C1NCCc2ccc(NS(=O)(=O)c3cc(F)c(F)cc3F)cc21` [Compound 35, 2,4,5-trifluoro-N-(1-oxo-1,2,3,4-tetrahydroisoquinolin-7-yl)benzenesulfonamide], the negative-log IC50 (pIC50) is less than 6.00.

As for `O=C1NCCc2ccc(NS(=O)(=O)c3ccc(F)c(F)c3F)cc21` [Compound 36, 2,3,4-trifluoro-N-(1-oxo-1,2,3,4-tetrahydroisoquinolin-7-yl)benzenesulfonamide], the pIC50 was 6.30 to 7.00.

Compound `Cc1ccc(Cl)c(S(=O)(=O)Nc2ccc3cc[nH]c(=O)c3c2)c1Cl` [Compound 37, 2,6-dichloro-3-methyl-N-(1-oxo-2H-isoquinolin-7-yl)benzenesulfonamide] showed a pIC50 greater than 7.00.

In turn, `O=C1NCCc2ccc(NS(=O)(=O)c3c(F)cc(F)cc3F)cc21` [Compound 38, 2,4,6-trifluoro-N-(1-oxo-3,4-dihydro-2H-isoquinolin-7-yl)benzenesulfonamide] had a negative-log IC50 (pIC50) of less than 6.00.

As for `Cc1c(Cl)cccc1S(=O)(=O)Nc1ccc2c(c1)C(=O)NCCC2` [Compound 39, 3-chloro-2-methyl-N-(1-oxo-2,3,4,5-tetrahydro-1H-benzo[c]azepin-8-yl)benzenesulfonamide], the negative-log IC50 (pIC50) is greater than 7.00.
